The test system of assay [1] is Plasmodium falciparum. In words: Antimalarial activity against Plasmodium falciparum K1 assessed as inhibition of [3H]hypoxanthine incorporation preincubated for 48 hrs measured 24 hrs post [3H]hypoxanthine addition by liquid scintillation counting. It counts as functional, organism-based.
For assay [2], the system named is Plasmodium falciparum. The assay is described as follows: Antimalarial activity against Plasmodium falciparum […] assessed as inhibition of [3H]hypoxanthine incorporation preincubated for 48 hrs measured 24 hrs post [3H]hypoxanthine addition by liquid scintillation counting. It counts as functional, organism-based.

Experimental findings from ChEMBL document CHEMBL3297698, “Novel synthetic route for antimalarial benzo[a]phenoxazine derivative SSJ-183 and two active metabolites” (Bioorg Med Chem, 2014) are described below.

The IC50 is the point on the concentration scale where inhibition reaches its midpoint. Regarding `CCNc1ccc2nc3c4ccccc4/c(=N/c4ccncc4)cc-3oc2c1`, the half-inhibitory concentration (IC50) in the assay with Plasmodium falciparum [1] was 5 nM; in the assay on Plasmodium falciparum [2], 7.5 nM.

On to `CCN(CC)c1ccc2nc3c4ccccc4/c(=N\c4ccncc4)cc-3oc2c1`, for which the IC50 in the assay on Plasmodium falciparum [1] stood at 6.5 nM; in the assay with Plasmodium falciparum [2] it was 11 nM.

In the case of `CN(C)c1ccc2nc3ccc(=[N+](C)C)cc-3sc2c1` [METHYLENE BLUE CATION], the concentration for half-maximal inhibition (IC50) in the assay with Plasmodium falciparum [1] worked out at 5.2 nM; in the assay with Plasmodium falciparum [2], 4.2 nM.

Turning to `Nc1ccc2nc3c4ccccc4/c(=N/c4ccncc4)cc-3oc2c1`, the values for the IC50 in the assay on Plasmodium falciparum [1] and in the assay with Plasmodium falciparum [2] were 17.1 nM and 24 nM, respectively.
